This is an account of results in US11226337B2, “Chemoproteomic profiling of protein electrophilic and oxidative post-translational modifications” (Zenagem, LLC, priority 2017, dated 2022).

Structures are written as SMILES.

Common to all, as to experiment: SILAC RP-ABPP
Common to all, as to type: cell-based

Assay [1] addresses T1, AMD1 S-adenosylmethionine decarboxylase (P17707) (Homo sapiens, UniProt P17707).
T1 construct: shared by both the endogenous and recombinant forms of these proteins; endogenous in cells; host or cells: HEK293T and MDA-MB-231
T1 sequence (P17707 68-334 limits assumed): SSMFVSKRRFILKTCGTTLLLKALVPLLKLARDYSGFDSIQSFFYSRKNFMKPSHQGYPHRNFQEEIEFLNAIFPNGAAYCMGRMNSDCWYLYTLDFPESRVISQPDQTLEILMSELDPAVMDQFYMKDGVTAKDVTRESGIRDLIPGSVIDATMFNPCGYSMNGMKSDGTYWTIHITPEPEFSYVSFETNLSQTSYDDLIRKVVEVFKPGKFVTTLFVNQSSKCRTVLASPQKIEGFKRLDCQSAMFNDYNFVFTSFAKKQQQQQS
T1 sequence (P17707 1-67 limits assumed): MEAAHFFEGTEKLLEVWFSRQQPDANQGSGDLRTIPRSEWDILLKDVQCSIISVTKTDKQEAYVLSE
Particulars: SILAC H/L, HEK293T. The procedure: (§1) Modifications to this protocol included using isotopically ‘light’ and ‘heavy’ SILAC cells that were also grown to near complete confluence prior to treatment. Isotopically light cells were treated with the non-clickable hydrazine probe (at the same concentration as the probe in ‘enrichment’ experiments) or the probe in the presence of 10-fold excess non-clickable hydrazine probe as a competitor (in ‘competition’ experiments). Isotopically heavy cells were treated with the probe for both types of experiments. These treatments were performed in non-SILAC media. Following treatments, cells were washed with cold PBS to remove the probe-containing media, harvested by scraping, collected by centrifugation (1,400 g, 3 min, 4° C.), washed again by resuspension in cold PBS and frozen as pellets at −80° C. until use.
(§2) The fractionated equimolar mixture of heavy and light soluble proteomes (1-1.5 mg) was diluted to 1 mL in PBS. Click reactions were scaled accordingly (except for biotin-azide) to maintain final concentrations of 0.1 mM TBTA, 1 mM CuSO4, 100 μM biotin-azide (10 mM in DMSO) and 1 mM TCEP. The mixture was vortexed and placed on a rotator at ambient temperature for 1 hour. Sequential addition of and mixture with pre-chilled methanol (MeOH, 2 mL), chloroform (CHCl3, 0.5 mL) and PBS (1 mL) on ice quenched the reaction. The precipitated proteome was centrifuged (5,000 g, 10 min, 4° C.) to fractionate the protein interphase from the organic and aqueous solvent layers. The protein pellet was washed with cold 1:1 MeOH:CHCl3 (3×1 mL), mildly sonicated in cold 4:1 MeOH:CHCl3 (2.5 mL) and pelleted once more by centrifugation (5,000 g, 10 min, 4° C.) to ensure click reagents were efficiently removed.
(§3) Heavy and light parent ion chromatograms associated with successfully identified peptides were extracted and compared using CIMAGE software as previously described^69. At least one ion of a co-eluting heavy-light pair must be accurately identified from a fragmentation event that occurred within the retention time window (±10 min) of parent ion elution. To ensure that the correct pair of peaks is quantified, chromatograms are extracted within a 10 ppm error tolerance of the predicted m/z, the signal-to-noise ratio must be >2.5 and the ‘co-elution correlation score’ and ‘envelope correlation score’ must have R^2 values ≥0.8. In addition, peptides detected as ‘singletons,’ where only the heavy ion of a peptide pair was identified, but for which passed all other filtering parameters, are given a default assigned ratio of ‘20,’ which is defined as any measured ratio that is ≥20.
(§4) To further eliminate false positives and any stochastic variability in the data, protein ratios were then determined by the median peptide ratio derived from three or more unique quantified peptides. Protein ratios that complied with these criteria from a single experiment were then averaged with ratios acquired from ≥3 replicates to provide final values for each type of experiment in both cell lines with both probes. […] Probe targets in HEK293T and MDA-MB-231 cells represent data combined from ≥3 independent biological replicates with each cell type performed with several independent batches of synthesized probes over a period of almost two years.
(§5) Two types of experiments were performed—1) direct enrichment of probe 1-labelled proteins from heavy cells in comparison to light control cells treated with the non-clickable hydrazine (3) at the same concentration as 1 (3 mM for 0.5 h); and 2) competition experiments where both heavy and light cells were treated probe 1, but light cells were also treated with 10× competitor 3 (FIG. 3A)—in two different human cell lines (HEK293T cells and the human breast cancer cell line MDA-MB-231).

Assay [2] deals with T2, SCRN2 Secernin-2 (Q96FV2) (Homo sapiens, UniProt Q96FV2).
T2 construct: shared by both the endogenous and recombinant forms of these proteins; endogenous in cells; host or cells: HEK293T and MDA-MB-231
Particulars: SILAC H/L, HEK293T. The procedure: as §1, §2, §3, §4, §5

A further assay addresses T3, LGMN Legumain (Q99538) (Homo sapiens, UniProt Q99538).
T3 construct: shared by both the endogenous and recombinant forms of these proteins; endogenous in cells; host or cells: HEK293T and MDA-MB-231
T3 sequence (Q99538 18-323): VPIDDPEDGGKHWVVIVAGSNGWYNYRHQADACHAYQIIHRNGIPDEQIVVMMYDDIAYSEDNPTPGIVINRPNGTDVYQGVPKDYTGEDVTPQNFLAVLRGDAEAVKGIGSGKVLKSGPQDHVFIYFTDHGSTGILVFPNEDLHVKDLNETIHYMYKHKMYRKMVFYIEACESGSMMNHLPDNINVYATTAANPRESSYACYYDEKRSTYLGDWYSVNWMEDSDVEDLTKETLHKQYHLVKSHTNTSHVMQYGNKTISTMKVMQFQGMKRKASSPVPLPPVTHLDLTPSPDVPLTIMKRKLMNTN
Particulars: SILAC H/L. The procedure:
as §1, §2, §3, §4, §5

Assay [3] has as its target T4, SCRN3 Secernin-3 (Q0VDG4) (Homo sapiens, UniProt Q0VDG4).
T4 construct: shared by both the endogenous and recombinant forms of these proteins; endogenous in cells; host or cells: HEK293T and MDA-MB-231
T4 sequence (Q0VDG4 6-424): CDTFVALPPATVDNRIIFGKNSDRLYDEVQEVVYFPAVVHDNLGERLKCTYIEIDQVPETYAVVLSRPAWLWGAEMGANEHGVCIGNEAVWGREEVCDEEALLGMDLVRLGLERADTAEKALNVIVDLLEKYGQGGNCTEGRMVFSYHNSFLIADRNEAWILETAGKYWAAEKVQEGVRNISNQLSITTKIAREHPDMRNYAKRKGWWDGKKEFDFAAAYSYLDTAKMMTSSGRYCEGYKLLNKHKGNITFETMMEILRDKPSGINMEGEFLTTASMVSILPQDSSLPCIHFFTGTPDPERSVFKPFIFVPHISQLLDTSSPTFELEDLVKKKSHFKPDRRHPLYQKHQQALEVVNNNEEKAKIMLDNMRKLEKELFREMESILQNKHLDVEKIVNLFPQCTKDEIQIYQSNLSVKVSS
Particulars: SILAC H/L, HEK293T. The procedure:
as §1, §2, §3, §4, §5

For the molecule `C#CCCNC(=O)c1ccc(NN)cc1.Cl` [probe 2, N-(but-3-yn-1-yl)-4-hydrazinylbenzamide hydrochloride], the enrichment ratioavg in assay [1] (probe 2 1 mM 0.5 h vs probe 4) is reported as 20; in assay [2] (probe 2 1 mM 0.5 h vs probe 4), 20; at LGMN Legumain (Q99538) (probe 2 1 mM 0.5 h vs probe 4, MDA-MB-231), 20; in assay [3] (probe 2 1 mM 0.5 h vs probe 4) it was 15. For the same molecule, the competition ratioavg in assay [1] (probe 2 vs probe 2+10x probe 4) is 6; in assay [2] (probe 2 vs probe 2+10x probe 4), 13; on LGMN Legumain (Q99538) (probe 2 vs probe 2+10x probe 4, MDA-MB-231), 4; in assay [3] (probe 2 vs probe 2+10x probe 4) it was 16.

In the case of `C#CCNN.Cl` [probe 1, prop-2-yn-1-ylhydrazine hydrochloride], the enrichment ratioavg in assay [1] (probe 1 3 mM 0.5 h vs probe 3) stood at 20; in assay [2] (probe 1 3 mM 0.5 h vs probe 3), 20; at LGMN Legumain (Q99538) (probe 1 3 mM 0.5 h vs probe 3, HEK293T), 20; in assay [3] (probe 1 3 mM 0.5 h vs probe 3), 20. The competition ratioavg in assay [1] (probe 1 vs probe 1+10x probe 3) is listed as 5; in assay [2] (probe 1 vs probe 1+10x probe 3), 9; on LGMN Legumain (Q99538) (probe 1 vs probe 1+10x probe 3, HEK293T) it was 18; in assay [3] (probe 1 vs probe 1+10x probe 3), 6.
